How the values were obtained:
[1] = Fat binding feeding study in rats on formulated high fat diet
Method: (§1) All rats were fed a basal diet for 5 days prior to initiation of dosing on Day 0. At Day 0, animals in Groups 1 to 5 and 7 received the appropriate formulated diet. The diet was available ad libitum. […] The total amount of the diet consumed by each animal was determined every 3 to 4 days.

[2] = rat, in vivo
Method: as §1

For `CCCCCCCCCCC[C@@H](C[C@@H]1OC(=O)[C@H]1CCCCCC)OC(=O)[C@H](CC(C)C)NC=O` [Xenical], the Triglycerides ([1]; blood of rats, test article in diet) was 107 mg/dL, the “Weight Gain” value ([1]; rats, test article in diet ad libitum) was 425 gms and the ALT [2] was 54 IU/L. It also gave an AST [2] of 104 IU/L and a Bilirubin [2] of 0.4 mg/dL.

— patent US20030018176A1, “Dry acid-chitosan complexes” (priority 1999, published 2003)
